Measurements published in patent EP0105584B1, “Perfluorocarbon emulsions and their preparation and use in therapy” (ADAMANTECH, INC., priority 1982, dated 1984).
Marks after values point to notes of the source that are not given here.

Experiments:
[1] = Octanol:water partition coefficient
[2] = Distribution of drug between PFC phase and aqueous phase of Dispersion B; assay type: physicochemical; conditions: for Drug in emulsion÷ drug in aqueous phase: Dispersion B, blending for 30 minutes
Experimental: (§1) In the course of in vitro chemosensitization studies in the LAN-1 human neuroblastoma spheroid system, conducted substantially as described in Example 4 above except for Adriamycin as the chemotherapeutic agent, it was noted that the anti-tumor activity of the Adriamycin was inhibited by the PFC material (PFC Dispersion B). […] This was tested by dissolving in water a radio-labelled analogue of Adriamycin, C^14-Daunomycin, adding Dispersion B (or in separate experiments, the neat PFC component of Dispersion B), blending for 30 minutes, separating the PFC phase from the aqueous phase, and determining the distribution of drug between the phases. Table VIII below reports the results of the experiment and similar experiments with three other drugs. It will be noted that the more lipophilic Duanomycin preferentially partitioned into the PFC phase whereas the other, less lipophilic, drugs favored the aqueous phase. It was concluded that although the PFC may have an inhibitory effect on less lipophilic drugs, the delivery of lipophilic drugs will be enhanced by the PFC.
The partitioning of the Vincristine between the PFC and aqueous phases of Dispersion B was first studied in comparison with Daunomycin, as reported in Table IX below, where "PFC" means the PFC phase of Dispersion B.

MCa-11 mammary carcinoma [3] = experiment: In vivo chemosensitization with Vincristine; design: species or system BALB/c mice; conditions: Vincristine 1.5 mg/kg i.p. single dose, or 20 ml/kg Dispersion B i.v. with carbogen breathing, each alone
Experimental: The MCa-11 mammary carcinoma was transplanted into the thigh of BALB/c mice and grown to a diameter of 6 mm, at which time the mice were treated. Control mice received an injection of saline, while Vincristine treatment consisted of a single dose of 1.5 mg/kg of Vincristine administered intraperitoneally. PFC treatment consisted of an i.v. injection of 20 ml/kg of Dispersion B, followed by two hours of breathing carbogen (95% 02/5% C02), and injection of saline of Vincristine as before, followed by another two hours of carbogen breathing.

[4] = test system: LAN-1 human neuroblastoma spheroid system; experiment: In vitro chemosensitization with Adriamycin, spheroids; assay type: cell-based; conditions: in the presence of PFC Dispersion B
Experimental: as §1

MCa-11 mammary carcinoma [5] = experiment: In vivo chemosensitization with cyclophosphamide; design: species or system BALB/c mice; conditions: cyclophosphamide 75 mg/kg i.p. single dose
Experimental: The combined use of PFC dispersion (Dispersion B) and high oxygen breathing for enhancement of the anti-tumor effects of cyclophosphamide ("CYC") was investigated with respect to treatment of MCa-11 mammary carcinoma transplanted into the right hind leg of female BALB/c mice. The tumors were allowed to grow to 2 mm at which point the animals were treated as described in Table VII below, wherein the cyclophosphamide, obtained commercially, was dissolved in distilled water and injected in a volume equal to […] of body weight. Three to six animals per treatment group were used in the study. On the day of treatment and three to five times per week thereafter, the tumors were sized with vernier calipers.

P388 leukemia = conditions: cited from earlier work
[6] = test system: NB-100 neuroblastoma multicellular tumor spheroids; experiment: In vitro chemosensitization with methotrexate, MTS; assay type: cell-based, human; conditions: 5 µM MTX for 24 hours
[7] = 1 hour, PFC phase of Dispersion B

In the case of `CC[C@]1(O)C[C@H]2CN(CCc3c([nH]c4ccccc34)[C@@](C(=O)OC)(c3cc4c(cc3OC)N(C=O)[C@H]3[C@@](O)(C(=O)OC)[C@H](OC(C)=O)[C@]5(CC)C=CCN6CC[C@]43[C@@H]65)C2)C1` [Vincristine], the logP [1] was 2.83, the “PFC/H2O (ratio of concentrations in the emulsion and the aqueous phases)” value [2, 7] was 2.69 and the “PFC/H2O (ratio of concentrations in the emulsion and the aqueous phases)” value ([2]; 3 hours, determined via bioassay in the LAN-1 neuroblastoma spheroid system) was 9.10^c. The “effect on tumor growth” value (MCa-11 mammary carcinoma [3]) was “no effect on tumor growth”.
With `COc1cccc2c1C(=O)c1c(O)c3c(c(O)c1C2=O)C[C@@](O)(C(=O)CO)C[C@@H]3O[C@H]1C[C@H](N)[C@H](O)[C@H](C)O1` [Adriamycin] the anti-tumor activity [4] was “inhibited”.
In the case of `O=P1(N(CCCl)CCCl)NCCCO1` (stereo not drawn) [Cyclophosphamide, cyclophosphamide], the “Days to grow 6 mm” value (MCa-11 mammary carcinoma [5]; interpolated from the tumor growth curves) was 17.8 days and the Growth delay (MCa-11 mammary carcinoma [5]; relative to untreated controls) was 5.3.
For `FC(F)(F)C(F)(F)C(F)(F)C(F)(F)C(F)(F)C(F)(F)C(F)(F)C(F)(F)Br` [perfluorooctyl bromide], the local toxicity (P388 leukemia; mouse, in vivo) is listed as “local toxic reactions in the peritoneal cavity were observed” and the “improvement in therapy (survival time)” value (P388 leukemia; oxygen-saturated neat compound injected 24 hours before graded doses of whole body X-rays, versus salt solution) is listed as “failed to show a significant improvement in therapy”.
In the case of `CN(Cc1cnc2nc(N)nc(N)c2n1)c1ccc(C(=O)N[C@@H](CCC(=O)O)C(=O)O)cc1` [MTX, methotrexate], the “D8, number of days required for the MTS to grow 8 units or 200 µm beyond their original diameter” value [6] was 9.52 days, the MTS sizes ([6]; Day 0, 1 unit=25 µm) was 9.83±0.17 microscope units and the MTS sizes ([6]; Day 1) was 9.74 microscope units. The MTS sizes ([6]; Day 4) was 10.69 microscope units, the MTS sizes ([6]; Day 6) was 11.76 microscope units and the MTS sizes ([6]; Day 8) was 13.93 microscope units. For the same compound, the MTS sizes ([6]; Day 12) was 18.93 microscope units, the MTS sizes ([6]; Day 15) was 21.83 microscope units and the “Drug in emulsion÷ drug in aqueous phase” value [2] was 0.07. For the same compound, the “Lipophilicity index (partition coefficient of the drug between octanol and water)” value was 0.014.
With `COc1cccc2c1C(=O)c1c(O)c3c(c(O)c1C2=O)C[C@@](O)(C(C)=O)C[C@@H]3O[C@H]1C[C@H](N)[C@H](O)[C@H](C)O1` [Daunomycin] the logP [1] was -0.102, the “PFC/H2O (ratio of concentrations in the emulsion and the aqueous phases)” value [2, 7] was 1.23 and the “PFC/H2O (ratio of concentrations in the emulsion and the aqueous phases)” value ([2]; 3 hours, PFC phase of Dispersion B) was 3.80. The “Drug in emulsion÷ drug in aqueous phase” value [2] was 3.77.
For `COCC(O)Cn1ccnc1[N+](=O)[O-]` (stereo not drawn) [Misonidazole], the logP [1] was -0.367 and the “Drug in emulsion÷ drug in aqueous phase” value [2] was 0.04.
With `NCCCNCCSP(=O)(O)O` [WR-2721, S - 2 - (3 - aminopropylamino) ethylphosphorothioic acid] the logP [1] was -2.7 and the “Drug in emulsion÷ drug in aqueous phase” value [2] was 0.05.
